In ChEMBL document CHEMBL1145710, “Antineoplastic agents. 362. Isolation and X-ray crystal structure of dibromophakellstatin from the Indian ocean sponge Phakellia mauritiana” (1997):
Converted amounts (≈) assume the structure as drawn.

Columns and labels:
Assay type in all cases: functional
KM-20L2 = test: Cytotoxicity against human KM20L2 cells by SRB assay; conditions: read-out: ED50 (the source's name)
HOP-92 = test: Cytotoxicity against human HOP92 cells by SRB assay
SNB-75 = test: Cytotoxicity against human SNB75 cells by SRB assay
SF-539 = test: Cytotoxicity against human SF539 cells by SRB assay
[1] = Cytotoxicity against human MCF7/ADR cells by SRB assay; conditions: NCI/ADR-RES
A549 = test: Cytotoxicity against human A549 cells by SRB assay
SF-295 = test: Cytotoxicity against human SF295 cells by SRB assay; conditions: read-out: ED50 (the source's name)
786-0 = test: Cytotoxicity against human 786-0 cells by SRB assay
OVCAR-3 = test: Cytotoxicity against human OVCAR-3 cells by SRB assay; conditions: read-out: ED50 (the source's name)
SK-MEL-5 = test: Cytotoxicity against human SK-MEL-5 cells by SRB assay; conditions: read-out: ED50 (the source's name)
[2] = Cytotoxicity against human Hs 578T cells by SRB assay
OVCAR-8 = test: Cytotoxicity against human OVCAR8 cells by SRB assay
NCI-H522 = test: Cytotoxicity against human NCI-H522 cells by SRB assay
NCI-H460 = test: Cytotoxicity against human H460 cells by SRB assay; conditions: read-out: ED50 (the source's name)
A498 = test: Cytotoxicity against human A498 cells by SRB assay; conditions: read-out: ED50 (the source's name)
HCT-116 = test: Cytotoxicity against human HCT116 cells by SRB assay
PC-3 = test: Cytotoxicity against human PC3 cells by SRB assay
MDA-MB-231 = test: Cytotoxicity against human MDA-MB-231 cells by SRB assay
NCI-H226 = test: Cytotoxicity against human NCI-H226 cells by SRB assay
U-251 = test: Cytotoxicity against human U251 cells by SRB assay
HT-29 = test: Cytotoxicity against human HT-29 cells by SRB assay
K562 = test: Cytotoxicity against human K562 cells by SRB assay
OVCAR-5 = test: Cytotoxicity against human OVCAR5 cells by SRB assay
COLO 205 = test: Cytotoxicity against human COLO205 cells by SRB assay

Compound | EC50 (KM-20L2) [µg/mL] | EC50 (SF-295) [µg/mL] | EC50 (OVCAR-3) [µg/mL] | EC50 (SK-MEL-5) [µg/mL] | EC50 (NCI-H460) [µg/mL] | EC50 (A498) [µg/mL] | also measured
O=C1N[C@H]2n3c(cc(Br)c3Br)C(=O)N3CCC[C@]23N1 [DIBROMOPHAKELLSTATIN] | 0.11 (≈ 0.282 µM) | 1.5 (≈ 3.85 µM) | 0.46 (≈ 1.18 µM) | 0.11 (≈ 0.282 µM) | 0.62 (≈ 1.59 µM) | 0.21 (≈ 0.538 µM) | GI50 (HOP-92): 490 nM; GI50 (SNB-75): 776 nM; GI50 (SF-539): 617 nM; GI50 [1]: 525 nM; GI50 (A549): 676 nM; GI50 (786-0): 603 nM; GI50 [2]: 871 nM; GI50 (OVCAR-8): 120 nM; GI50 (NCI-H522): 240 nM; GI50 (HCT-116): 575 nM; GI50 (PC-3): 708 nM; GI50 (MDA-MB-231): 724 nM; GI50 (NCI-H226): 871 nM; GI50 (U-251): 589 nM; GI50 (HT-29): 631 nM; GI50 (K562): 692 nM; GI50 (OVCAR-5): 676 nM; GI50 (COLO 205): 794 nM
NC1=N[C@]23CCCN2C(=O)c2cc(Br)c(Br)n2[C@@H]3N1 [DIBROMOPHAKELLIN] | 20.1 (≈ 51.7 µM) | 18.8 (≈ 48.3 µM) | 15.7 (≈ 40.4 µM) | 17 (≈ 43.7 µM) | 22 (≈ 56.5 µM) | 17.8 (≈ 45.8 µM) | –
NC1=N/C(=C2/CCNC(=O)c3[nH]ccc32)C(=O)N1 [DEBROMOHYMENIALDISINE] | 8.5 (≈ 34.7 µM) | 38.9 (≈ 159 µM) | 1.8 (≈ 7.34 µM) | 5.7 (≈ 23.2 µM) | 42 (≈ 171 µM) | 24.7 (≈ 101 µM) | –
